According to patent publication US20070004791A1, “3,6-disubstituted azabicyclo {3.1.0} hexane derivatives useful as muscarnic receptor antagonists” (priority 2002, published 2007):
Structures can show the parent of a compound that is named as a salt.

Assays:
M3 muscarinic receptor [1] = molecular target: T1, M3 muscarinic receptor (Rattus norvegicus, UniProt P08483); experiment: biochemical; conditions: Receptor Binding Assay M3 pKi
M2 muscarinic receptor = molecular target: T2, M2 muscarinic receptor (Rattus norvegicus, UniProt P10980); experiment: biochemical; assay type: binding; conditions: Receptor Binding Assay M2 pKi
T2 construct: Submandibular glands and heart were isolated and placed in ice cold homogenising buffer; from tissue; host or cells: rat heart membrane homogenate
T2 sequence (P10980 1-466): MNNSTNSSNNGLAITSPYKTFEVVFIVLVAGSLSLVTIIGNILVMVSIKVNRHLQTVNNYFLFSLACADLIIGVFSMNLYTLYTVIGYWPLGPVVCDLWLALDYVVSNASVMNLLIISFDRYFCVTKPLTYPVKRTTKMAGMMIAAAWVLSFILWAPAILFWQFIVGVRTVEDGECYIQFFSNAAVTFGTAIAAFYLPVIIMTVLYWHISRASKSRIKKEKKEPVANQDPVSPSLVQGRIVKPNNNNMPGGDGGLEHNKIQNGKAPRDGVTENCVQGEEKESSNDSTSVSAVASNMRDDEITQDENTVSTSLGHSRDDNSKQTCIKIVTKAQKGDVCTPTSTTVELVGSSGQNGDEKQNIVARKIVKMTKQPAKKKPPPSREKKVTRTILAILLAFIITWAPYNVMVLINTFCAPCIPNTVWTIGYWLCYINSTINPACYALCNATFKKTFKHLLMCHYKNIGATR

M3 muscarinic receptor [2] = molecular target: T1, M3 muscarinic receptor
bladder pressure = experiment: In vivo anaesthetized rabbit, carbachol-induced bladder pressure; conditions: bladder selectivity expressed as fold of selectivity of oxybutynin in the same model

T1 sequence (P08483 whole entry): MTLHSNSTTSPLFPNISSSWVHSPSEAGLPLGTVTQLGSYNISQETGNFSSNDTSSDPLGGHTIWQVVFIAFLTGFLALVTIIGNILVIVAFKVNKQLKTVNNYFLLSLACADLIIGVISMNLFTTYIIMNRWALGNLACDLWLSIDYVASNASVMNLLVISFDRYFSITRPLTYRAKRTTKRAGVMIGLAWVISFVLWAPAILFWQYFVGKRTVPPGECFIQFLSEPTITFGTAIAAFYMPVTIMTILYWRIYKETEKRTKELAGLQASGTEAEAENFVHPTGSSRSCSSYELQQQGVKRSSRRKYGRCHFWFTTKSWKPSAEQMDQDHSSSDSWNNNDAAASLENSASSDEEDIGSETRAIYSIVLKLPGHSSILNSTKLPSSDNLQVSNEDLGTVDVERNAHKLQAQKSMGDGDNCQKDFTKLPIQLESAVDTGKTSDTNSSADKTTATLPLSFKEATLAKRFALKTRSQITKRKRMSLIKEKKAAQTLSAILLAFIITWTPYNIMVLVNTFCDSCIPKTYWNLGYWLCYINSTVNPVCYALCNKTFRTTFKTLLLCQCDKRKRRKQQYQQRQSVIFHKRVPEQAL

Compound | Ki (M3 muscarinic receptor [1]) | Ki (M2 muscarinic receptor) | Receptor Binding Assay Selectivity M2/M3 (M3 muscarinic receptor [2]) | melting point | Fold of Oxybutynin (bladder pressure)
O=C(NC[C@@H]1[C@H]2CN(Cc3ccccc3)C[C@@H]12)C(O)(c1ccccc1)C1CCCC1 (stereo partly drawn) [Compound No. 3, (1α,5α,6α)-N-[3-benzyl-3-azabicyclo[3.1.0]hexyl-6(aminomethyl)-yl]-2-hydroxy-2-cyclopentyl-2-phenyl acetamide] | 5.89 nM | 95.5 nM | 16 | 131 to 134 °C | 
CC(NC(=O)C(O)(c1ccccc1)c1ccccc1)[C@H]1[C@@H]2CN(Cc3ccccc3)C[C@@H]21 (stereo partly drawn) [Compound No. 23, (1α,5α,6α)-N-[3-benzyl-3-azabicyclo[3.1.0]hexyl-6-(1-aminoethyl)-yl]-2-hydroxy-2,2-diphenyl acetamide] | 158 nM | 589 nM | 3.7 |  | 
CC(NC(=O)C(O)(c1ccccc1)C1CCCCC1)[C@H]1[C@@H]2CN(Cc3ccccc3)C[C@@H]21 (stereo partly drawn) [Compound No. 24, (1α,5α,6α)-N-[3-benzyl-3-azabicyclo[3.1.0]hexyl-6-(1-aminoethyl)-yl]-2-hydroxy-2-cyclohexyl-2-phenyl acetamide] | 30.9 nM | 275 nM | 8.9 |  | 
CC(NC(=O)C(O)(c1ccccc1)C1CCCC1)[C@H]1[C@@H]2CN(Cc3ccccc3)C[C@@H]21 (stereo partly drawn) [Compound No. 25, (1α,5α,6α)-N-[3-benzyl-3-azabicyclo[3.1.0]hexyl-6-(1-aminoethyl)-yl]-2-hydroxy-2-cyclopentyl-2-phenyl acetamide] | 25.1 nM | 427 nM | 17 |  | 
O=C(NC[C@@H]1[C@H]2CN(Cc3ccccc3)C[C@@H]12)[C@](O)(c1ccccc1)C1CCCC1 [Compound No. 29, (2R)-(+)-(1α,5α,6α)-N-[3-benzyl-3-azabicyclo[3.1.0]hexyl-6-(aminomethyl)-yl]-2-hydroxy-2-cyclopentyl-2-phenyl acetamide] | 1.1 nM | 12.3 nM | 11.2 |  | 
O=C(NC[C@@H]1[C@H]2CN(Cc3ccccc3)C[C@@H]12)[C@@](O)(c1ccccc1)C1CCCC1 [Compound No. 32, (2S)-(−)(1α,5α,6α)-N-[3-benzyl-3-azabicyclo[3.1.0]hexyl-6-(aminomethyl)-yl]-2-hydroxy-2-cyclopentyl-2-phenyl acetamide] | 22.4 nM | 631 nM | 28 |  | 
O=C(NCC1C2CN(Cc3ccccc3)CC12)C(O)(c1ccccc1)C1CCCC1 [Compound No. 34, (1α,5α,6α)-N-[3-benzyl-3-azabicyclo[3.1.0]hexyl-6-(aminomethyl)-yl]-2-hydroxy-2-cyclopentyl-2-phenyl acetamide L-(+)-tartrate salt] | 5.89 nM | 60.3 nM | 8 |  | 
O=C(NCC1C2CN(Cc3ccccc3)CC12)[C@](O)(c1ccccc1)C1CCCC1.O=C(O)C(O)C(O)C(=O)O (stereo partly drawn) [Compound No. 35, (2R)-(+)-(1α,5α,6α)-N-[3-benzyl-3-azabicyclo[3.1.0]hexyl-6-(aminomethyl)-yl]-2-hydroxy-2-cyclopentyl-2-phenylacetamide. L(+)-tartrate salt] |  |  |  |  | 3.45
O=C(NCC1C2CN(Cc3ccccc3)CC12)[C@@](O)(c1ccccc1)C1CCCC1.O=C(O)C(O)C(O)C(=O)O (stereo partly drawn) [Compound No. 36, (2S)-(−)-(1α,5α,6α)-N-[3-benzyl-3-azabicyclo[3.1.0]hexyl-6(aminomethyl)-yl]-2-hydroxy-2-cyclopentyl-2-phenylacetamide. L(+)-tartrate salt] |  |  |  |  | 2.17
O=C(NC[C@@H]1[C@H]2CN(Cc3ccccc3)C[C@@H]12)C(O)(c1ccccc1)C1CCC1 (stereo partly drawn) [Compound No. 37, (1α,5α,6α)-N-[3-benzyl-3-azabicyclo[3.1.0]hexyl-6-(aminomethyl)-yl]-2hydroxy-2-cyclobutyl-2-phenylacetamide] | 5.89 nM | 57.5 nM | 8 |  | 
O=C(NC[C@@H]1[C@H]2CN(Cc3ccccc3)C[C@@H]12)C(O)(c1ccccc1)C1CC1 (stereo partly drawn) [Compound No. 38, (1α,5α,6α)-N-[3-benzyl-3-azabicyclo[3.1.0]hexyl-6-(aminomethyl)-yl]-2-hydroxy-2-cyclopropyl-2-phenylacetamide] | 64.6 nM | 427 nM | 6.6 |  | 
CC(C)=CCN1C[C@@H]2[C@@H](CNC(=O)C(O)(c3ccccc3)C3CCCCC3)[C@@H]2C1 (stereo partly drawn) [Compound No. 39, (1α,5α,6α)-N-[3-(3-methyl-2-butenyl)-3-azabicyclo[3.1.0]hexyl-6-(aminomethyl)yl]-2-hydroxy-2-cyclohexyl-2-phenylacetamide] | 4.37 nM | 16.2 nM | 3.7 |  | 
